For data set [1], the system named is SUM 149 cells. The data set is described as follows: Cell growth assay (MTS), SUM 149. The class given is cell-based, human. The conditions noted are these: 72 h of treatment, mean ± SE. How it is done: (§1) Dr. Elda Tagliabue (Molecular Targeting Unit, Department of Experimental Oncology and Molecular Medicine, Fondazione Institute of Hospitalization and Scientific Care, National Cancer Institute, Milan, Italy) kindly provided us the human breast cancer cell lines: MDA-MB-231(ATCC: HTB-26—Rockville, MD, USA) and SUM 149 (SUM149PT—Asterand Bioscience Detroit, MI). The first was cultured in RPMI-1640 and the second was cultured in DMEM/F-12 supplemented with insulin (5 μg/mL). The cells were authenticated using the short tandem repeat profiling method in their Institute. Prof. Giulio Ghersi (STEBICEF Department, University of Palermo, Italy) kindly provided us the non-tumorigenic cell line 1-7HB2 (ECACC 10081201—Cancer Research Technology, London, UK) that was cultured in DMEM low glucose supplemented with hydrocortisone (5 μg/mL) and insulin (10 μg/mL). HL60, obtained from ATCC® (CCL-240, Rockville, MD, USA), and its variant HL60R, obtained by exposure to gradually increasing concentrations of doxorubicin, were cultured in RPMI-1640. All media were supplemented with 10% heat-inactivated fetal calf serum, 2 mM L-glutamine, 100 U/mL penicillin and 100 μg/mL streptomycin (all reagents were from EuroClone S.p.A., Milan, Italy; GE Healthcare Life Sciences, Logan, UT, USA). All cell lines were cultured in a humidified atmosphere at 37 °C in 5% CO2.
(§2) The cells were seeded at 2 × 10^4 cells/well onto 96-well plates and incubated at 37 °C overnight; at time 0, the medium was replaced with fresh complete medium supplemented of compounds at the indicated concentrations. Following 72 h of treatment, 16 μL of a commercial solution obtained from Promega Corporation (Madison, WI, USA) containing 3-(4,5-dimethylthiazol- 2-yl)-5-(3-carboxy methoxyphenyl)-2-(4-sulphophenyl)-2H-tetrazolium (MTS) and phenazine ethosulfate were added. After a incubation in a humidified atmosphere at 37 °C in 5% CO2, the bioreduction of MTS dye was evaluated by measuring the absorbance of each well at 490 nm, using a microplate absorbance reader (iMark Microplate Reader; Bio-Rad Laboratories, Inc., Hercules, CA, USA). Cell growth inhibition was expressed as a percentage (mean ± SE) of the absorbance of the control cells.

For data set [2], the system named is MDA-MB-231 cells. The data set is described as follows: Pro-oxidant effect by cell counting with NAC, MDA-MB-231. How it is done:
(§3) Pro-oxidant effects were examined by cell counting, adding N-acetyl-L-cysteine (NAC), an antioxidant molecule, 1h before compounds. Results were expressed as mean ± standard error (SE) of at least three different experiments performed in duplicate. All the chemicals were supplied by Sigma Aldrich Srl, Milan, Italy.

Data set [3] is described as follows: DPPH free radical scavenging assay. The note with it: DPPH reduction, 1 h in the dark at room temperature, absorbance 517 nm. In kind it is biochemical. On the procedure: The antioxidant activity was evaluated by the DPPH stable radical method. Trolox (6-hydroxy-2,5,7,8-tetramethyl-chroman-2-carboxylic acid) curve was used as the positive control. 100 μL of sample was added to aliquots of a solution made up with DPPH (4.8 mg) in MeOH (200 mL), and the mixture was incubated in the dark, for 1 h at room temperature. The absorbance was measured using a UV-VIS spectrophotometer, at 517 nm. The results were plotted as the percentage of absorbance disappearance at 517 nm [(1-A/A0) × 100] against the amount of sample divided by the initial concentration of DPPH; lower absorbance values of reaction mixture indicate higher free radical scavenging activity. ED50 corresponds to micrograms of fraction able to consume half the amount of free radical divided by micromoles of initial DPPH. The results were expressed as antiradical capacity (ARC), which is the inverse of ED50. Each point was acquired in triplicate.

A further data set concerns 1-7HB2 cells. The data set is described as follows: Cell growth assay (MTS), normal cell line 1-7HB2. In kind it is cell-based. The conditions noted are these: cell growth inhibition, 72 h of treatment, mean ± SE. On the procedure:
as §1, §2

A further data set has as its system Survivin. The data set is described as follows: Western blot of Survivin in SUM 149 cells. The class given is cell-based, human. The note with it: SUM 149, 24 h, compound at IC50. From the text:
(§4) In order to verify if the three analogues alter the expression of some targets of NF-κB, like curcumin, western blot analysis was used. […] In line with the results of NF-κB DNA-binding activity inhibition, only Compounds 1 and 3 caused a decrease of expression of some targets in the same cell lines. In particular, in SUM 149 cells only Compound 3 caused a decreased expression of Survivin (a 55% of reduction respect to control) and Bcl-2 (a 48% of reduction respect to control), while in MDA-MB-231 cells only Compound 1 caused a reduction of IAP1 expression (a 32% of reduction with respect to the control) (Figure 8 and Figure 9).
(§5) Whole-cell lysates were obtained from breast cancer cells using RIPA buffer (Santa Cruz Biotechnology Inc., Dallas, TX, USA) and 25 μg protein was subjected to 10% SDS-PAGE and transferred to Hybond-P membranes (GE Healthcare Europe GmbH, Freiburg, Germany). Filters were incubated with primary antibodies raised against β-actin (Sigma-Aldrich Srl, Milan, Italy), Bcl-2 (Santa Cruz Biotechnology Inc., Dallas, TX, USA), XIAP (Cell Signaling Technology, Danvers, MA), Survivin (Novus Biologicals, Littleton, CO), IAP1 (Cell Signaling Technology, Danvers, MA). […]
(§6) Immunoblots were quantified by densitometry, the data were expressed as arbitrary units (protein/β-actin).
(In general: Immunoblotting shows a protein as a band on a membrane.)

Data set [4] relates to NF-κB (p65 subunit). The data set is described as follows: NF-κB DNA-binding activity (TransAM), MDA-MB-231 nuclear extracts. The note with it: MDA-MB-231, compounds at IC50 values, 8 h of treatment. The class given is cell-based, human. From the text:
(§7) The DNA-binding capacity of NF-κB (p65 subunit) was defined in the nuclear extracts of SUM 149 and MDA-MB-231 cells using the TransAM NF-κB and Nuclear Extract kits (Active Motif, Carlsbad, CA, USA). The determination of binding capacity was based on a 96-well plate, on which an oligonucleotide containing the NF-κB consensus binding site was fixed. […] After addition of a horseradish peroxidase-conjugated secondary antibody, a sensitive colorimetric readout was quantified by densitometry (iMark Microplate Reader; Bio-Rad Laboratories, Inc.). The control of specificity of the assay carried out according to the indications of manufacturer’s protocol. The results were expressed as arbitrary units: one unit indicated the DNA binding capacity exerted by 2.5 μg whole cell extract from Jurkat cells/microgram of protein from the nuclear extracts. Jurkat cells, stimulated with 12-O-tetradecanoylphorbol-13-acetate and calcium ionophore, are the positive control for NF-κB p65 activation.

In the next data set the test system is Bcl-2. The data set is described as follows: Western blot of Bcl-2 in SUM 149 cells. The class given is cell-based, human. The note with it: SUM 149, 24 h, compound at IC50.
Text: as §4, §5, §6

A further data set has as its system HL60R cells. The data set is described as follows: Cell growth assay, multidrug resistant HL60R. In kind it is cell-based. The conditions noted are these: read-out: HL60 R IC50. How it is done:
as §1, §2

The subject of data set [5] is SUM 149 cells. The data set is described as follows: Pro-oxidant effect by cell counting with NAC, SUM 149. The conditions noted are these: for Cell Viability (%): SUM 149, cell counting, mean ± SE. How it is done: as §3
Data set [6] concerns MDA-MB-231 cells. The data set is described as follows: Cell growth assay (MTS), MDA-MB-231. In kind it is cell-based, human. The conditions noted are these: 72 h of treatment, mean ± SE. How it is done:
as §1, §2

Data set [7] relates to NF-κB (p65 subunit). The data set is described as follows: NF-κB DNA-binding activity (TransAM), SUM 149 nuclear extracts. The class given is cell-based, human. The conditions noted are these: SUM 149, compounds at IC50 values, 24 h of treatment.
Text: as §7

In a further data set the test system is HL60 cells. The data set is described as follows: Cell growth assay, HL60. In kind it is cell-based. How it is done: as §1, §2
A further data set has as its system IAP1. The data set is described as follows: Western blot of IAP1 in MDA-MB-231 cells. In kind it is cell-based, human. The conditions noted are these: MDA-MB-231, 8 h, compound at IC50.
Text: as §4, §5, §6

Setting [8] is: cell growth inhibition, read-out: SUM149 IC50 (converted).
Setting [9] is: multidrug resistant variant of HL60, cell growth assay.
The mark [10] stands for this setting: acute promyelocytic leukemia HL60, cell growth assay, read-out: HL60 IC50.

“Also recorded” adds a separate entry of the source. Read-outs that look alike come from different tables or passages of the source.

As a reminder, the IC50 is the concentration at which inhibition is half-maximal. For “4-phenylsulfanyl-(1E,6E)-1,7-bis(4-hydroxy-3-methoxyphenyl)hepta-1,6-diene-3,5-dione [Compound 3]”, the IC50 with SUM 149 cells [1] (setting [8]) is 13.5 ± 0.88 µM; with 1-7HB2 cells it was 12.5 ± 0.43 µM; in the data set on HL60R cells (setting [9]), 6.7 µM; in the data set on MDA-MB-231 cells [6] (cell growth inhibition), 15 ± 0.85 µM; in the data set with HL60 cells (setting [10]), less than 1 µM. Besides, the “Cell Viability (%)” value was 25.6 ± 0.7% in the data set with MDA-MB-231 cells [2] (MDA-MB-231, cell counting, compound alone at its IC50 (curc 25 μM, 1 18 μM, 2 20 μM, 3 15 μM), mean ± SE); 14.0 ± 4.6% in the data set with SUM 149 cells [5] (NAC 2 mM 1 h before compound at its IC50); 34.0 ± 2.1% with SUM 149 cells [5] (compound alone at its IC50 (curc 14 μM, 1 11 μM, 2 13 μM, 3 14 μM)). Besides, the ED50 in data set [3] came to 19.2 µM. Further, in the data set with Survivin, the “reduction of Survivin expression respect to control” value was 55%. Besides, the “NF-κB DNA-binding activity” value in the data set on NF-κB (p65 subunit) [4] is reported as “NF-κB inhibitors”; in the data set on NF-κB (p65 subunit) [7] it was “stronger decrease than curcumin”. Also, in the data set with Bcl-2, the “reduction of Bcl-2 expression respect to control” value worked out at 48%.

`C#CCOc1ccc(/C=C/C(=O)CC(=O)/C=C/c2ccc(OCC#C)c(OC)c2)cc1OC` [Compound 2, (1E,6E)-1,7-bis(3-methoxy-4-propargyloxyphenyl)hepta-1,6-diene-3,5-dione]: the IC50 with SUM 149 cells [1] (setting [8]) is 13.2 ± 1.59 µM; with HL60R cells (setting [9]), 9 µM; in the data set with MDA-MB-231 cells [6] (cell growth inhibition), 20 µM; in the data set with HL60 cells (setting [10]), 17 µM. The “1-7HB2 IC50” value with 1-7HB2 cells is reported as “not reached”.

With `COc1cc(/C=C/C(O)=C/C(=O)/C=C/c2ccc(OCc3ccc(CBr)cc3)c(OC)c2)ccc1O` [Compound 4, (1E,6E)-1-(4-hydroxy-3-methoxyphenyl)-7-[3-methoxy-4(4-methylbromobenzyl)oxyphenyl] hepta-1,6-diene-3,5-dione], the “SUM149 IC50” value in the data set on SUM 149 cells [1] (cell growth inhibition) was “not reached”. Also, in the data set on 1-7HB2 cells, the “1-7HB2 IC50” value was “not reached”. Further, the “MDA-MB-231 IC50” value in the data set on MDA-MB-231 cells [6] (cell growth inhibition) is given as “not reached”.

Regarding `COc1cc(/C=C/C(=O)/C=C(O)/C=C/c2ccc(OCc3ccc(CBr)cc3)c(OC)c2)ccc1OCc1ccc(CBr)cc1` [Compound 5, (1E,6E)-1,7-bis [3-methoxy-4(4-methylbromobenzyl)oxyphenyl]hepta-1,6-diene-3,5-dione], in the data set with SUM 149 cells [1] (cell growth inhibition), the “SUM149 IC50” value is reported as “not reached”. Also, the “1-7HB2 IC50” value with 1-7HB2 cells is “not reached”. In the data set with MDA-MB-231 cells [6] (cell growth inhibition), the “MDA-MB-231 IC50” value was “not reached”.

With `COc1cc(/C=C/C(=O)CC(=O)/C=C/c2ccc(O)c(OC)c2)ccc1O` [Curcumin, reference compound], the IC50 in the data set with SUM 149 cells [1] (Homo sapiens, SUM149, cell growth inhibition) stood at 14 ± 0.29 µM; with 1-7HB2 cells it was 37.5 ± 0.51 µM; in the data set with HL60R cells (HL60R), 40.5 µM; in the data set on MDA-MB-231 cells [6] (Homo sapiens, MDA-MB-231, cell growth inhibition), 25.5 ± 0.35 µM; in the data set on HL60 cells (Homo sapiens, HL-60, read-out: HL60 IC50), 47.5 µM.

What is called viability is a read-out of living cells in per cent, often relative to untreated cells. Regarding `CC(=O)N[C@@H](CS)C(=O)O` [NAC, N-acetyl-L-cysteine], the viability at 2000 µM with MDA-MB-231 cells [2] (Homo sapiens, MDA-MB-231, read-out: Cell Viability (%)) turned out to be 87 ± 3.9%; in the data set with SUM 149 cells [5] (Homo sapiens, SUM149, read-out: Cell Viability (%)), 100 ± 9.5%.

The molecule `Cc1c(C)c2c(c(C)c1O)CCC(C)(C(=O)O)O2` (stereo not drawn) [Trolox, 6-hydroxy-2,5,7,8-tetramethyl-chroman-2-carboxylic acid, reference compound] showed an ED50 in [3] of 12.0 µM.

Turning to “(1E,6E)-1-(4-hydroxy-3-methoxyphenyl)-7-(3-methoxy-4-propargyloxyphenyl)hepta-1,6-diene -3,5-dione [Compound 1]”, the “reduction of IAP1 expression with respect to the control” value in the data set with IAP1 is on record as 32%. In addition, the half-maximal inhibitory concentration (IC50) in the data set with SUM 149 cells [1] (setting [8]) was 11.2 µM; in the data set with 1-7HB2 cells, 20 µM; in the data set with HL60R cells (setting [9]), 7 µM; with MDA-MB-231 cells [6] (cell growth inhibition) it was 18 µM; in the data set with HL60 cells (setting [10]), 14 µM. For the same molecule, the “NF-κB DNA-binding activity” value in the data set with NF-κB (p65 subunit) [4] is “NF-κB inhibitors; also recorded: greater effect than curcumin”.
